Results reported in patent publication US20250288572A1, “COMPOSITIONS AND METHODS FOR TREATING PULMONARY VASCULAR DISEASE” (UNIVERSITY OF PITTSBURGH-OF THE COMMONWEALTH SYSTEM OF …, priority 2022, published 2025).
Entries after “also recorded” stand apart in the source; their conditions may differ. Where a SMILES comes first, the peptide text is derived from it. The star is where a group is joined. Cbz = O=C(OCc1ccccc1)*

How the values were obtained:
[1] = test system: hypoxia-induced pulmonary hypertension mice; experiment: Hypoxia-induced (Group 3) pulmonary hypertension mouse model
Excerpt: Animal models: For the hypoxia-induced pulmonary hypertension mice, male C57BL/6J mice (8 weeks old) (RRID:IMSR_JAX:000664) were purchased from Jackson laboratory and acclimatized for 3-4 days in this facility. Subsequently, mice scheduled for normoxic vs. hypoxic exposure were maintained in either normoxia or a normobaric hypoxia chamber for 1 or 3 weeks (OxyCycler, Biospherix Ltd.), where consistent exposure to 10% oxygen and control for temperature and humidity were possible.
I-BET was dissolved in DMSO at 100× concentration and then made into a working solution in 20% PEG400 and 80% 1×PBS.
Male and female 8 week old Lgals8−/− mice were exposed to hypoxia for 3 weeks. Littermates were used as wildtype (WT) control when comparing with knockout mice.
Immunofluorescent staining: Cryostat sections were cut from OCT-embedded lung tissues at 5-10 μm and mounted on gelatin-coated histological slides. Slides were thawed at room temperature for 10-20 min and rehydrated in wash buffer for 10 minutes. All sections were blocked in 10% donkey scrum and exposed to primary antibody and Alexa 488, 568 and 647-conjugated secondary antibodies (Thermo Fisher Scientific). The following primary antibodies were used: Lgals8 (Ab69631, Abcam; 1/2200), IL-1 (ab9722, Abcam; 1%200), GSTP1 (ab153949, Abcam; 1:100), ISCU (14812-1-AP, Proteintech; 1:100), cleaved caspase 3 (cs-9661, Cell Signaling; 1/400), α-SMA (F3777, Sigma; I/200) and CD31 (ab7388, Abcam: 1/200). Images were obtained using Nikon A1 confocal microscope with 40× objective. Small pulmonary vessels (10 vessels/section) that were not associated with bronchial airways were selected for analysis. Intensity of staining was quantified using ImageJ software (NIH). Degree of pulmonary arteriolar muscularization was assessed in OCT lung sections stained for α-SMA by calculation of the proportion of fully and partially muscularized peripheral (<100 μm diameter) pulmonary arteriole to total peripheral pulmonary arterioles (Bertero T et al. J Clin Invest. 2014, 124, 3514-3528).

[2] = test system: PAECs; experiment: Cellular apoptosis, caspase-3/7 activity (Caspase-Glo 3/7) in PAECs; assay type: cell-based, human; conditions: PAECs
Experimental: (§1) The hypoxia chamber (modular incubator chamber) was obtained from Billups-Rothenberg Inc. (Del Mar, Cali) and placed in regulated CO2 incubator at 37° C.
Cellular apoptosis: Caspase-3/7 activity was quantified using the Caspase-Glo 3/7 Assay (Promega), according to manufacturer's instructions. Caspase-3/7 activity was normalized to total protein content determined by BCA method (Thermo Fisher Scientific).

[3] = test system: PAECs; experiment: RT-qPCR gene expression in PAECs; assay type: cell-based, human; conditions: for expression of Cluster 15 members (SLC9A3R1, LGALS3): IL-1β-induced expression changes
Experimental: as §1
RT-qPCR analysis: Cells were lysis in 1 ml of QiaZol reagent (Qiagen). Total RNA content was extracted using the RNeasy kit (Qiagen), according to the manufacturer's instructions. Total RNA concentration was determined using a BioTek Synergy multimode plate reader. Messenger RNAs were reverse transcribed to generate cDNA using the Multiscript RT kit (Thermo Fisher Scientific). cDNA for specific gene targets was amplified and quantified via fluorescently-labeled Taqman primer sets and Taqman fast advanced master mix (Thermo Fisher Scientific) using an Applied Biosystems QuantStudio 6 Flex Real-Time PCR System.

[4] = test system: SU5416-hypoxic pulmonary arterial hypertension rats; experiment: SU5416-hypoxia pulmonary arterial hypertension rat model, disease-reversal dosing; assay type: in vivo, Sprague-Dawley rats; conditions: SU5416-hypoxia rats
Experimental: Briefly, 10 week old male Sprague-Dawley rats were injected i.p. with 20 mg/kg of SU5416 (Sigma), placed in normobaric hypoxia (10% 02) for 3 weeks and then transferred to normoxia for 2 weeks. During hypoxic exposure, chambers were opened twice a week for cleaning and replenishment of food and water. […] For BRD2889 vs. vehicle control dosing, i.p. injections every 5 days (5 mg/kg) were administered during the final two weeks of normoxia. Oxygen concentrations were continuously monitored with blood gas analyzers.
Measurement of GST activity: The GST activity from lung tissue and PAECs was assayed using GST assay kit (Cayman, MI, USA) per the manufacturer's instructions.
Rodent echocardiography: Echocardiography was performed using a 15-45M Hz transthoracic transducer and a Visual Sonics Vevo 3100 system (Fujifilm). Inhaled isoflurane anesthesia was used at 2% in 100% 02 during positioning and hair removal and then decreased to isoflurane 0.8% during imaging.

[5] = test system: PAECs; experiment: Flow cytometry detection of mitochondrial superoxide (MitoSOX Red) in PAECs
Experimental: To assess the effect of I-BET under inflammatory conditions, cells were treated with recombinant human IL-1β (10 ng/ml, Peprotech) at about 70-80% confluency for 48 h in complete media along with vehicle control (DMSO, Sigma-41639), I-BET151 (500 nM), 1-BET762 (500 nM) (Selleckchem-S2780/S7189), as indicated.
For hypoxia exposure, cells were plated in 6-well cell culture plates at 1×10^5 cells/well, grown for 24 hr and placed into a normobaric hypoxia chamber (1%02) for 24 h under specific treatment conditions. Namely, for I-BET and siLGALS8 exposures, cells were either pre-treated with I-BET/vehicle control (VC) or transfected with siLgals8/Scr for 24 h. Then, they were cultured in basal media at 1% 02. After 24 h, caspase activity and mitochondrial superoxide levels were quantified. To detect activation status of pSTAT1/STAT1 by immunoblot, cells were exposed to 8 h of hypoxia.
Flow cytometry detection of mitochondria superoxide: For measuring mitochondrial superoxide, cells were incubated with 5 μM of MitoSOX Red mitochondrial superoxide indicator (Thermo Fisher Scientific) for 10 min in 37° C.

[6] = test system: LGALS8; experiment: Immunoblot and densitometry of LGALS8 isoforms in PAECs; assay type: cell-based, human; conditions: IL-1β, listed as I-BET
Experimental: (§2) Immunoblot and densitometry: Cells were lysed in RIPA buffer (Sigma) along with 1× protease inhibitor cocktail (Sigma). Protein lysate was resolved by gradient 4%-15% SDS-PAGE gels and transferred onto a 0.2 μm PVDF membrane (Bio-Rad). Membranes were blocked in 5% non-fat milk in 1×PBST buffer for one hour at room temperature. Later, they were incubated in the presence of the primary antibody overnight at 4° C., and then appropriate HRP-conjugated secondary antibodies (Life Technologies). The following antibodies were used: human LGALS8 (AF1305, RnD Systems), mouse/rat Lgals8 ([…], Abcam), pSTAT1 (ab29045, Abcam) and STAT1 (ab47425, Abcam), GSTP1 (ab153949, Abcam), ISCU (14812-1-AP, Pointech), Glutathione (ab19534, Abcam), HIF2A (NB100-122, Novous), α-Tubulin (CP06, Millipore sigma), and ACTB (sc-47778, Santa Cruz). The immunoreactive bands were visualized with the Chemidoc XRS+ system (Bio-Rad) using SuperSignal West Femto chemiluminescent substrates (Thermo Fisher Scientific). The images were later quantified using AlphaEaseFC software (Alpha Innotech).

[7] = test system: rats with PAH due to monocrotaline exposure; experiment: Monocrotaline PAH rats, glutaminase inhibitors daily i.p. Days 7-21 (Example 2); assay type: in vivo; conditions: MCT rats; for Fulton index / right ventricular systolic pressure (RVSP): 10 mg/kg daily i.p. Days 7-21, vs vehicle control
Experimental: In rats with PAH due to monocrotaline exposure, daily i.p, delivery of CB-839 (10 mg/kg) vs. UPGL00064 (10 mg/kg) vs. vehicle control was performed from Days 7-21 post-monocrotaline exposure. […] Error bars represent ±SEM. […] In rats with PAH due to monocrotaline exposure, daily i.p. delivery of CB-839 (10 mg/kg) vs. UPGL000064 (10 mg/kg) vs. vehicle control was performed from Days 7-21 post-monocrotaline exposure. […] Error bars represent ±SEM.

[8] = test system: ISCU; experiment: Protein stability assay (proteasome inhibitor MG132) in hypoxic PAECs; assay type: cell-based, human; parameters: dose or concentration left out as unconfirmed; conditions: MG132 (2 h)
Experimental: Protein stability assay: The proteasome inhibitor MG132 (M7449, Sigma) was stored at −20° C. at a concentration of 10 mM diluted in dimethyl sulfoxide (DMSO). PAECs were exposed to MG132 ([…]) vs. DMSO vehicle control for 2 hr under hypoxia, prior to harvesting of cellular lysate for immunoblotting.
as §2

[9] = hypoxic mice, I-BET762 30 mg/kg daily oral
[10] = IL-1β 10 ng/ml 48 h, 500 nM vs vehicle control
[11] = IL-1β 10 ng/ml 48 h, 500 nM vs vehicle control, listed as I-BET
[12] = I-BET762 30 mg/kg daily i.p. or BRD2889 5 mg/kg i.p. every 5 days, final 2 weeks
[13] = IL-1β 48 h, I-BET plus rhGal8 24 h (30 nM)

Molecule: CCNC(=O)C[C@@H]1N=C(c2ccc(Cl)cc2)c2cc(OC)ccc2-n2c(C)nnc21 [I-BET762]
- cleaved caspase-3 (apoptosis) [1, 9]: reduced downstream apoptosis; also recorded: reversed the 3 week hypoxia-dependent increases
- heart rate [1, 9]: without significant effect
- pulmonary vascular LGALS8 expression [1, 9]: robustly decreased; also recorded: reversed the 3 week hypoxia-dependent increases
- pulmonary vascular muscularization (α-SMA) [1, 9]: reduced; also recorded: reversed the 3 week hypoxia-dependent increases
- right ventricular systolic pressure (RVSP) [1, 9]: reduced; also recorded: reversed the 3 week hypoxia-dependent increases
- LGALS8 ([1]; normoxic mice, similar dosing, mean±SEM, vehicle control 1±0.02, p=NS): 1.08±0.03 fold change
- apoptosis, caspase-3/7 activity [2, 10]: reversed the IL-1β-induced increases
- apoptosis, caspase-3/7 activity [2, 11]: reduced the IL-1β-dependent increase
- apoptosis, caspase-3/7 activity ([2]; hypoxia 24 h, I-BET vs vehicle control): reversed the hypoxia-induced increases
- LGALS8-L transcript ([3]; IL-1β): reversed the alterations
- expression of C15 genes LGALS3, LGALS8, DAG1, SLC9A3R1 (extent of reversal) ([3]; IL-1β): near complete reversal
- expression of CD47, ABCC4 and DAG1 ([3]; IL-1β): all rescued
- expression of Cluster 15 (C15) gene galectin-8 (LGALS8) ([3]; IL-1β): reversed the IL-1β-induced increases
- LGALS8-L transcript ([3]; IL-1β, listed as I-BET): reversed by I-BET
- LGALS8-M transcript ([3]; IL-1β, listed as I-BET): not altered by I-BET
- expression of Cluster 15 members (SLC9A3R1, LGALS3) [3]: reversed
- LGALS8 in pulmonary arterioles (immunofluorescence) ([4]; I-BET762 30 mg/kg daily i.p. Days 21-35): decreased
- arteriolar muscularization (α-SMA) [4, 12]: reduced
- cleaved caspase-3 (CC-3), endothelial apoptosis [4, 12]: reduced downstream apoptosis; also recorded: decreased
- right ventricular systolic pressure (RVSP) [4, 12]: reduced
- mitochondrial superoxide (O2−) levels, MitoSOX Red [5, 10]: reversed the IL-1β-induced increases; also recorded: reversed by I-BET762
- mitochondrial superoxide (O2−) levels, MitoSOX Red [5, 11]: reduced the IL-1β-dependent increase
- mitochondrial superoxide (O2−) levels, MitoSOX Red ([5]; hypoxia 24 h, vs vehicle control): reversed the hypoxia-induced increases
- LGALS8-L protein (immunoblot densitometry) [6]: followed its mRNA expression; also recorded: reversed the IL-1β-induced increase
- LGALS8-M protein (immunoblot densitometry) [6]: no significant difference

Molecule: O=C(Cc1ccccc1)Nc1nnc(NC2CCN(c3nnc(NC(=O)CC4CC4)s3)CC2)s1 [UPGL00064]
- Fulton index, compared with CB-839 ([7]; 10 mg/kg daily i.p. Days 7-21): more robust trend toward lower Fulton index
- RVSP, compared with CB-839 ([7]; 10 mg/kg daily i.p. Days 7-21): more robust trend toward lower RVSP
- Fulton index [7]: significantly decreased
- right ventricular systolic pressure (RVSP) [7]: significantly decreased

Molecule: COc1cc2c(cc1-c1c(C)noc1C)ncc1[nH]c(=O)n([C@H](C)c3ccccn3)c12 [I-BET151]
- expression of Cluster 15 members (SLC9A3R1, LGALS3) [3]: reversed

Molecule: O=C(Cc1cccc(OC(F)(F)F)c1)Nc1ccc(CCCCc2nnc(NC(=O)Cc3ccccn3)s2)nn1 [CB-839, reference compound]
- Fulton index [7]: significantly decreased
- right ventricular systolic pressure (RVSP) [7]: significantly decreased

Molecule: CC(C)C[C@@H](C=O)NC(=O)[C@H](CC(C)C)NC(=O)[C@H](CC(C)C)NC(=O)OCc1ccccc1 [MG132] (Cbz-Leu-Leu-Leu-aldehyde)
- GSTP1 and ISCU glutathionylation [8]: without affecting GSTP1 or glutathionylation
- ISCU protein [8]: reversed the hypoxic down-regulation of ISCU; also recorded: reversed the hypoxia-induced reduction of ISCU

B1: rhGal8: recombinant human LGALS8 (galectin-8), R&D Systems 1305-GA-050 (protein, UniProt O00214 1-317, looked up)
Galectin-8: MMLSLNNLQNIIYNPVIPFVGTIPDQLDPGTLIVIRGHVPSDADRFQVDLQNGSSMKPRADVAFHFNPRFKRAGCIVCNTLINEKWGREEITYDTPFKREKSFEIVIMVLKDKFQVAVNGKHTLLYGHRIGPEKIDTLGIYGKVNIHSIGFSFSSDLQSTQASSLELTEISRENVPKSGTPQLRLPFAARLNTPMGPGRTVVVKGEVNANAKSFNVDLLAGKSKDIALHLNPRLNIKAFVRNSFLQESWGEEERNITSFPFSPGMYFEMIIYCDVREFKVAVNGVHSLEYKHRFKELSSIDTLEINGDIHLLEVRSW
- caspase 3/7 activity (apoptosis): effect of rhGal8 on the I-BET-induced attenuation [2, 13]: reduced the ability of I-BET to decrease; also recorded: reversed the I-BET-induced attenuation
- apoptosis ([2]; rhGal8 alone): alone had no effect
- mitochondrial O2−: effect of rhGal8 on the I-BET-induced attenuation [5, 13]: reduced the ability of I-BET to decrease; also recorded: reversed the I-BET-induced attenuation; also recorded: attenuated
- mitochondrial superoxide ([5]; rhGal8 alone): alone had no effect
